System: GNS166 cells
Test: Microarray whole-transcriptome gene expression analysis
Type: cell-based, human
Protocol: Whole-transcriptome analysis was performed from 300 ng of RNA using HuGene-2_0-st-v1 expression array (Affymetrix), which covers 48,226 transcripts. Raw data were first checked for quality purposes through the Affymetrix® Expression Console™ Software v1.4.1 and TAC software v4.0. Then, data were normalized using the Robust Multi-array Average (RMA) and analyzed by Limma tool. Probesets with FDR-corrected p-values smaller than 0.05 were selected. Functional enrichment on Gene Ontology (GO) biological processes was performed on a smaller subset of the differentially expressed genes (corrected p-value < 0.001) by means of Broad Institute GSEA. […] The data that support this study have been deposited in NCBI´s Gene Expression Omnibus and are accessible through GEO series accession number GSE143887.

[1] = sheet DMSO-SAHA_DOWN, microarray

O=C(CCCCCCC(=O)Nc1ccccc1)NO [SAHA, Suberoylanilide hydroxamic acid]
logFC TTC7B (transcript TC1400009967.hg.1) [1]: -1.063
logFC TTC28 (transcript TC2200008356.hg.1) [1]: -1.091
logFC TXNDC15 (transcript TC0500008705.hg.1) [1]: -1.511
logFC USE1 (transcript TC1900007313.hg.1) [1]: -1.0842
logFC VCAN (transcript TC0500007972.hg.1) [1]: -1.305
logFC YAP1 (transcript TC1100008904.hg.1) [1]: -1.463
logFC ZDHHC4 (transcript TC0700006649.hg.1) [1]: -0.9579
logFC ZNF43 (transcript TC1900010163.hg.1) [1]: -0.8461
logFC ZNF107 (transcript TC0700013370.hg.1) [1]: -1.056
logFC ZNF805 (transcript TC1900008988.hg.1) [1]: -0.8747
logFC geneSymbol NA (transcript 23064083) [1]: -1.061
logFC geneSymbol NA (transcript 23066345) [1]: -1.581
logFC geneSymbol NA (transcript 23066351) [1]: -1.258
logFC geneSymbol NA (transcript 23066370) [1]: -1.256
logFC geneSymbol NA (transcript 23066378) [1]: -1.258
logFC geneSymbol NA (transcript 23075414) [1]: -1.568
logFC geneSymbol NA (transcript 23075613) [1]: -0.9478
logFC geneSymbol NA (transcript 23075631) [1]: -0.8653
logFC geneSymbol NA (transcript 23075715) [1]: -0.9535
logFC geneSymbol NA (transcript 23075786) [1]: -0.9478
logFC geneSymbol NA (transcript 23075802) [1]: -0.9222
logFC geneSymbol NA (transcript 23075888) [1]: -0.8842
logFC geneSymbol NA (transcript 23075961) [1]: -0.9103
logFC geneSymbol NA (transcript 23076100) [1]: -0.9321
logFC geneSymbol NA (transcript 23076182) [1]: -0.9773
logFC geneSymbol NA (transcript 23076263) [1]: -0.9293
logFC geneSymbol NA (transcript 23076348) [1]: -0.9199
logFC geneSymbol NA (transcript 23076424) [1]: -0.8654
logFC geneSymbol NA (transcript 23076493) [1]: -0.9827
logFC geneSymbol NA (transcript HTA2-pos-3670232_st) [1]: -0.8727
logFC geneSymbol NA (transcript HTA2-pos-3670240_st) [1]: -1.133
logFC geneSymbol NA (transcript HTA2-pos-PSR05023592.hg.1) [1]: -0.8946
logFC geneSymbol NA (transcript HTA2-pos-PSR05035203.hg.1) [1]: -1.027
logFC geneSymbol NA (transcript HTA2-pos-PSR17008061.hg.1) [1]: -0.9289
logFC geneSymbol NA (transcript HTA2-pos-PSR17008062.hg.1) [1]: -0.8972
logFC geneSymbol NA (transcript HTA2-pos-PSR17008080.hg.1) [1]: -0.8914
logFC geneSymbol NA (transcript HTA2-pos-PSR17008100.hg.1) [1]: -0.9888
logFC geneSymbol NA (transcript HTA2-pos-PSR17013956.hg.1) [1]: -1.322
logFC geneSymbol NA (transcript HTA2-pos-PSR19006615.hg.1) [1]: -0.8048
logFC transcript 23071521 (geneSymbol NA) (transcript 23071521, DMSO vs 5 µM SAHA, upregulated genes): 0.9492
logFC transcript 23074028 (geneSymbol NA) (transcript 23074028, DMSO vs 5 µM SAHA, upregulated genes): 1.15
logFC REPS2 (transcript TC0X00006704.hg.1, DMSO vs 5 µM SAHA, upregulated genes): 2.016
logFC FAM3C2 (transcript TC0X00006789.hg.1, DMSO vs 5 µM SAHA, upregulated genes): 1.058
logFC TMEM35 (transcript TC0X00007935.hg.1, DMSO vs 5 µM SAHA, upregulated genes): 1.065
logFC SMIM10 (transcript TC0X00008492.hg.1, DMSO vs 5 µM SAHA, upregulated genes): 1.0804
logFC CDR1 (transcript TC0X00008596.hg.1, DMSO vs 5 µM SAHA, upregulated genes): 2.1035
logFC GEMIN8 (transcript TC0X00009107.hg.1, DMSO vs 5 µM SAHA, upregulated genes): 1.085
logFC TAB3 (transcript TC0X00009339.hg.1, DMSO vs 5 µM SAHA, upregulated genes): 0.8188
logFC TMEM255A (transcript TC0X00010670.hg.1, DMSO vs 5 µM SAHA, upregulated genes): 1.002
logFC DCAF6 (transcript TC0100010518.hg.1, DMSO vs 5 µM SAHA, upregulated genes): 0.8028
logFC LAMC1 (transcript TC0100010863.hg.1, DMSO vs 5 µM SAHA, upregulated genes): 1.035
logFC PPP2R5A (transcript TC0100011520.hg.1, DMSO vs 5 µM SAHA, upregulated genes): 0.853
logFC VASH2 (transcript TC0100011552.hg.1, DMSO vs 5 µM SAHA, upregulated genes): 1.211
logFC FRRS1 (transcript TC0100015049.hg.1, DMSO vs 5 µM SAHA, upregulated genes): 1.197
logFC PLD5 (transcript TC0100017957.hg.1, DMSO vs 5 µM SAHA, upregulated genes): 1.018
logFC FPGT-TNNI3K (transcript TC0100018235.hg.1, DMSO vs 5 µM SAHA, upregulated genes): 1.058
logFC PPP1R21 (transcript TC0200007535.hg.1, DMSO vs 5 µM SAHA, upregulated genes): 1.2457
logFC ACVR2A (transcript TC0200009596.hg.1, DMSO vs 5 µM SAHA, upregulated genes): 1.001
logFC ACSL3 (transcript TC0200010907.hg.1, DMSO vs 5 µM SAHA, upregulated genes): 1.082
logFC PIGF (transcript TC0200012489.hg.1, DMSO vs 5 µM SAHA, upregulated genes): 1.027
logFC RND3 (transcript TC0200014597.hg.1, DMSO vs 5 µM SAHA, upregulated genes): 0.9455
logFC ACVR1C (transcript TC0200014694.hg.1, DMSO vs 5 µM SAHA, upregulated genes): 1.493
logFC CMTM8 (transcript TC0300006961.hg.1, DMSO vs 5 µM SAHA, upregulated genes): 0.9182
logFC RNF13 (transcript TC0300009147.hg.1, DMSO vs 5 µM SAHA, upregulated genes): 1.125
logFC RAP2B (transcript TC0300009229.hg.1, DMSO vs 5 µM SAHA, upregulated genes): 0.867
logFC TIPARP (transcript TC0300009282.hg.1, DMSO vs 5 µM SAHA, upregulated genes): 0.8784
logFC PPM1L (transcript TC0300009353.hg.1, DMSO vs 5 µM SAHA, upregulated genes): 1.659
logFC POLR2H (transcript TC0300009706.hg.1, DMSO vs 5 µM SAHA, upregulated genes): 0.9753
logFC SLC9A9 (transcript TC0300012686.hg.1, DMSO vs 5 µM SAHA, upregulated genes): 2.129
logFC TNIK (transcript TC0300013108.hg.1, DMSO vs 5 µM SAHA, upregulated genes): 1.27
logFC EFHB (transcript TC0300013950.hg.1, DMSO vs 5 µM SAHA, upregulated genes): 1.411
logFC DGKG (transcript TC0300014083.hg.1, DMSO vs 5 µM SAHA, upregulated genes): 2.595
logFC BMP2K (transcript TC0400007938.hg.1, DMSO vs 5 µM SAHA, upregulated genes): 0.9344
logFC NPNT (transcript TC0400008331.hg.1, DMSO vs 5 µM SAHA, upregulated genes): 1.698
logFC HHIP (transcript TC0400008892.hg.1, DMSO vs 5 µM SAHA, upregulated genes): 1.6713
logFC KIAA0922 (transcript TC0400009038.hg.1, DMSO vs 5 µM SAHA, upregulated genes): 1.219
logFC ETFDH (transcript TC0400009132.hg.1, DMSO vs 5 µM SAHA, upregulated genes): 0.9226
logFC CLCN3 (transcript TC0400009284.hg.1, DMSO vs 5 µM SAHA, upregulated genes): 0.8527
logFC FAM175A (transcript TC0400011208.hg.1, DMSO vs 5 µM SAHA, upregulated genes): 1.331
logFC PAPSS1 (transcript TC0400011538.hg.1, DMSO vs 5 µM SAHA, upregulated genes): 0.9468
logFC ETNPPL (transcript TC0400011563.hg.1, DMSO vs 5 µM SAHA, upregulated genes): 1.856
logFC PDE5A (transcript TC0400011712.hg.1, DMSO vs 5 µM SAHA, upregulated genes): 1.355
logFC RAPGEF2 (transcript TC0400012856.hg.1, DMSO vs 5 µM SAHA, upregulated genes): 1.1527
logFC FAM105A (transcript TC0500006816.hg.1, DMSO vs 5 µM SAHA, upregulated genes): 1.369
logFC SLC36A1 (transcript TC0500009123.hg.1, DMSO vs 5 µM SAHA, upregulated genes): 0.9929
logFC ARL15 (transcript TC0500010731.hg.1, DMSO vs 5 µM SAHA, upregulated genes): 2.128
logFC GLRX (transcript TC0500011497.hg.1, DMSO vs 5 µM SAHA, upregulated genes): 0.987
logFC NME5 (transcript TC0500012160.hg.1, DMSO vs 5 µM SAHA, upregulated genes): 1.606
logFC PCDH1 (transcript TC0500012294.hg.1, DMSO vs 5 µM SAHA, upregulated genes): 1.432

From PMC7265429, “Characterization of a new small-molecule inhibitor of HDAC6 in glioblastoma” (Cell Death & Disease, 2020)
